Assay results taken from patent publication US4812465A, “Triazole derivatives for use as antimycotic agents” (CL Pharma Aktiengesellschaft, priority 1986, dated 1989).
In brackets after ≈: the same amount, converted by molar mass.

Legend:
Experiment in all cases: In vitro determination of minimum inhibitory concentration (MIC), serial dilution
Assay type in all cases: cell-based
[1] = test system: Trichophyton mentagrophytes; conditions: pH 6.0, 22° C., 14 days; for MIC: 336 h, pH 6, Trichophyton mentagrophytes
Protocol: (§1) The antimycotic activities of the compounds were measured by in vitro determination of the minimum inhibitory concentration (MIC) for yeasts, molds and dermatophytes.
(§2) 6 dermatophytes, 2 yeasts and 4 molds were used for testing with fungi, as follows:
(§3) The minimum inhibitory concentration (MIC) was determined in serial dilution tests in test tubes. The volume of the liquid nutrient medium in each test tube was 4.5 ml.
(§4) The substances were dissolved in DMSO and diluted with sterile distilled water to 10 concentrations (100, 50, 25, 12.5, 6.25, 3.12, 1.56, 0.78, 0.39 and 0.19 μg/ml). 0.5 ml of each of these dilution steps was added to liquid nutrient medium. Thus, a constant concentration of solvent in all the nutrient media was ensured, irrespective of the active compound concentration.
(§5) A comparison solution which contained only the solvent in appropriate concentration was included when carrying out each of the tests.
(§6) The individual strains were maintained on Sabouraud/beerwort agar slants and, before they were used in a test, they underwent a passage on a modified Sabouraud liquid nutrient medium. The strains were then harvested, washed and converted into a suspension of McFaerland 3 in the case of yeasts and molds and of McFaerland 4-5 in the case of dermatophytes.
(§7) The amount of material inoculated (inoculum) was 100 μl/test tube (inoculated densities: yeasts about 10^3 /ml, molds about 10^4 /ml, dermatophytes about 10^4 /ml). The pH of the liquid nutrient medium was 6.0. After inoculation had taken place the fungi were incubated at 22° C. for 14 days.
(§8) The MIC was then determined. The concentration step at which growth was no longer visible on macroscopic inspection was used for the determination of the MIC. The comparison substance used was 1-(2-(2,4-dichlorophenyl)-2-(2,4-dichlorophenylmethoxy)ethyl)-1H-imidazole(compound A).

Microsporum canis = conditions: 336 h, pH 6, Microsporum canis, pH 6.0, 22° C., 14 days
Protocol: as §1, §2, §3, §4, §5, §6, §7, §8

Absidia ramosa = conditions: pH 6.0, 22° C., 14 days; for MIC: Lichtheimia ramosa, 336 h, pH 6, Absidia ramosa
Protocol: as §1, §2, §3, §4, §5, §6, §7, §8

Aspergillus fumigatus = conditions: 20160 min, pH 6
Protocol: as §1, §2, §3, §4, §5, §6, §7, §8

Trichophyton rubrum = conditions: pH 6.0, 22° C., 14 days; for MIC: 336 h, pH 6, Trichophyton rubrum
Protocol: as §1, §2, §3, §4, §5, §6, §7, §8

Candida tropicalis = conditions: 336 h, pH 6, Candida tropicalis, pH 6.0, 22° C., 14 days, read-out: MIC C.trop
Protocol: as §1, §2, §3, §4, §5, §6, §7, §8

Trichophyton verrucosum = conditions: pH 6.0, 22° C., 14 days; for MIC: 336 h, pH 6, Trichophyton verrucosum
Protocol: as §1, §2, §3, §4, §5, §6, §7, §8

Candida albicans = conditions: 336 h, pH 6, Candida albicans, pH 6.0, 22° C., 14 days, read-out: MIC C.alb
Protocol: as §1, §2, §3, §4, §5, §6, §7, §8

Microsporum gypseum = conditions: Nannizzia gypsea, 336 h, pH 6, Microsporum gypseum; pH 6.0, 22° C., 14 days; read-out: MIC Mi.gyp
Protocol: as §1, §2, §3, §4, §5, §6, §7, §8

Epidermophyton floccosum = conditions: pH 6.0, 22° C., 14 days; for MIC: 336 h, pH 6, Epidermophyton floccosum
Protocol: as §1, §2, §3, §4, §5, §6, §7, §8

Mucor mucedo plus = conditions: pH 6.0, 22° C., 14 days; for MIC: Mucor mucedo, 336 h, pH 6, Mucor mucedo plus
Protocol: as §1, §2, §3, §4, §5, §6, §7, §8

Mucor mucedo minus = conditions: pH 6.0, 22° C., 14 days; for MIC: Mucor mucedo, 336 h, pH 6, Mucor mucedo minus
Protocol: as §1, §2, §3, §4, §5, §6, §7, §8

Row | SMILES | MIC [1] | MIC (Microsporum canis) | MIC (Absidia ramosa) | MIC Asp.fu. (Aspergillus fumigatus) | MIC (Trichophyton rubrum) | MIC (Candida tropicalis) | MIC (Trichophyton verrucosum) | MIC (Candida albicans) | MIC (Microsporum gypseum) | MIC (Epidermophyton floccosum) | MIC (Mucor mucedo plus) | MIC (Mucor mucedo minus) | MIC Tri.me. [1] | MIC Abs.ra. (Absidia ramosa; Absidia ramosa) | MIC Tri.ru. (Trichophyton rubrum) | MIC Tri.ve. (Trichophyton verrucosum) | MIC Ep.flo (Epidermophyton floccosum) | MIC Mu.mu+ (Mucor mucedo plus; Mucor mucedo plus) | MIC Mu.mu- (Mucor mucedo minus; Mucor mucedo minus)
1 | Clc1ccc(C(Cn2cncn2)NCCCSc2ccc(Br)cc2)c(Cl)c1 (stereo not drawn) [Compound 104] | 25 µg/mL (≈ 51.4 µM) | 100 µg/mL (≈ 206 µM) | 100 µg/mL (≈ 206 µM) | 100 µg/mL (≈ 206 µM) | 6.25 µg/mL (≈ 12.9 µM) | 12.5 µg/mL (≈ 25.7 µM) | 12.5 µg/mL (≈ 25.7 µM) | 25 µg/mL (≈ 51.4 µM) | 6.25 µg/mL (≈ 12.9 µM) | 12.5 µg/mL (≈ 25.7 µM) | 12.5 µg/mL | 50 µg/mL (≈ 103 µM) |  |  |  |  |  |  | 
2 | Clc1ccc(SCCCNC(Cn2ccnc2)c2ccc(Cl)cc2Cl)cc1 (stereo not drawn) [Compound 2, 1-(2-(2,4-dichlorophenyl)-2-(3-(4-chlorophenylthio)propylamino)ethyl)-1H-imidazole] | 12.5 µg/mL (≈ 28.4 µM) | 1.56 µg/mL (≈ 3.54 µM) | 3.12 µg/mL (≈ 7.08 µM) | 3,12 μg/ml | 0.19 µg/mL (≈ 0.431 µM) | 1.56 µg/mL (≈ 3.54 µM) | 0.39 µg/mL (≈ 0.885 µM) | 3.12 µg/mL (≈ 7.08 µM) | 3.12 µg/mL (≈ 7.08 µM) | 6.25 µg/mL (≈ 14.2 µM) | 12.5 µg/mL | 25 µg/mL (≈ 56.7 µM) |  |  |  |  |  |  | 
3 | CN(CCCOc1ccc(Br)cc1)C(Cn1cncn1)c1ccc(Cl)cc1Cl (stereo not drawn) [Compound 62] | 1.56 µg/mL (≈ 3.22 µM) | 3.12 µg/mL (≈ 6.44 µM) | 50 µg/mL (≈ 103 µM) | 1,56 μg/ml | 3.12 µg/mL (≈ 6.44 µM) | 3.12 µg/mL (≈ 6.44 µM) | 1.56 µg/mL (≈ 3.22 µM) | 6.25 µg/mL (≈ 12.9 µM) | 3.12 µg/mL (≈ 6.44 µM) | 0.78 µg/mL (≈ 1.61 µM) | 3.12 µg/mL | 3.12 µg/mL (≈ 6.44 µM) |  |  |  |  |  |  | 
4 | Fc1ccc(OCCCNC(Cn2ccnc2)c2ccc(Cl)cc2Cl)cc1 (stereo not drawn) [Compound 56] | 3.12 µg/mL (≈ 7.64 µM) | 12.5 µg/mL (≈ 30.6 µM) | 6.25 µg/mL (≈ 15.3 µM) | 0,78 μg/ml | 1.56 µg/mL (≈ 3.82 µM) | 3.12 µg/mL (≈ 7.64 µM) | 1.56 µg/mL (≈ 3.82 µM) | 12.5 µg/mL (≈ 30.6 µM) | 3.12 µg/mL (≈ 7.64 µM) | 6.25 µg/mL (≈ 15.3 µM) | 1.56 µg/mL | 0.78 µg/mL (≈ 1.91 µM) |  |  |  |  |  |  | 
5 | Cc1cc(Cl)ccc1OCCCNC(Cn1cncn1)c1ccc(Cl)cc1Cl (stereo not drawn) [Compound 68] | 25 µg/mL (≈ 56.8 µM) | 12.5 µg/mL (≈ 28.4 µM) | 100 µg/mL (≈ 227 µM) | 100 µg/mL (≈ 227 µM) | 50 µg/mL (≈ 114 µM) | 25 µg/mL (≈ 56.8 µM) | 6.25 µg/mL (≈ 14.2 µM) | 50 µg/mL (≈ 114 µM) | 25 µg/mL (≈ 56.8 µM) | 25 µg/mL (≈ 56.8 µM) | 6.25 µg/mL | 12.5 µg/mL (≈ 28.4 µM) |  |  |  |  |  |  | 
6 | Clc1ccc(C(Cn2ccnc2)NCCCSc2ccc(Br)cc2)c(Cl)c1 (stereo not drawn) [Compound 105] |  | 0.78 µg/mL (≈ 1.61 µM) |  | 0,39 μg/ml |  | 3.12 µg/mL (≈ 6.43 µM) |  | 3.12 µg/mL (≈ 6.43 µM) | 0.39 µg/mL (≈ 0.804 µM) |  |  |  | 0,10 μg/ml | 12,5 μg/ml | 0,10 μg/ml | 0,10 μg/ml | 0,10 μg/ml | 3,12 μg/ml | 3,12 μg/ml
7 | Clc1ccc(SCCCNC(Cn2ccnc2)c2ccc(Br)cc2)cc1 (stereo not drawn) [Compound 100] | 6.25 µg/mL (≈ 13.9 µM) | 6.25 µg/mL (≈ 13.9 µM) | 6.25 µg/mL (≈ 13.9 µM) | 6,25 μg/ml | 3.12 µg/mL (≈ 6.92 µM) | 12.5 µg/mL (≈ 27.7 µM) | 6.25 µg/mL (≈ 13.9 µM) | 3.12 µg/mL (≈ 6.92 µM) | 6.25 µg/mL (≈ 13.9 µM) | 6.25 µg/mL (≈ 13.9 µM) | 12.5 µg/mL | 25 µg/mL (≈ 55.5 µM) |  |  |  |  |  |  | 
8 | Clc1ccc(SCCCNC(Cn2cncn2)c2ccc(Cl)cc2Cl)cc1 (stereo not drawn) [Compound 95] | 3.12 µg/mL (≈ 7.06 µM) | 6.25 µg/mL (≈ 14.1 µM) | 100 µg/mL (≈ 226 µM) | 12,5 μg/ml | 1.56 µg/mL (≈ 3.53 µM) | 12.5 µg/mL (≈ 28.3 µM) | 3.12 µg/mL (≈ 7.06 µM) | 12.5 µg/mL (≈ 28.3 µM) | 3.12 µg/mL (≈ 7.06 µM) | 0.78 µg/mL (≈ 1.77 µM) | 3.12 µg/mL | 3.12 µg/mL (≈ 7.06 µM) |  |  |  |  |  |  | 
9 | CN(CCCOc1ccc(Cl)cc1)C(Cn1ccnc1)c1ccc(Cl)cc1Cl (stereo not drawn) [Compound 60] | 6.25 µg/mL (≈ 14.2 µM) | 1.56 µg/mL (≈ 3.56 µM) | 6.25 µg/mL (≈ 14.2 µM) | 6,25 μg/ml | 0.78 µg/mL (≈ 1.78 µM) | 1.56 µg/mL (≈ 3.56 µM) | 1.56 µg/mL (≈ 3.56 µM) | 3.12 µg/mL (≈ 7.11 µM) | 3.12 µg/mL (≈ 7.11 µM) | 3.12 µg/mL (≈ 7.11 µM) | 3.12 µg/mL | 1.56 µg/mL (≈ 3.56 µM) |  |  |  |  |  |  | 
